US20160106099A1, “MICROBICIDAL COMPOSITION COMPRISING ISOTHIAZOLONE AND AN AMINE OXIDE” (THOR GMBH, priority 2013, published 2016)

Tests used:
[1] = system: Candida albicans (ATCC 10231); assay: Minimum inhibitory concentration and synergy index according to Kull et al.; format: cell-based; conditions: for Synergistic Index Qa/QA + Qb/QB: MIT + amine oxide
Protocol: (§1) The synergism of a combination of 2-Methyl-isothiazolinone (MIT) with N,N-Dimethyldodecan-1-amine oxide was tested. Test organisms used was the mould Aspergillus niger (DSM 12623). For the purpose of the test, mixtures containing different concentrations of MIT and N,N-Dimethyldodecan-1-amine oxide were prepared and tested for their action on Aspergillus niger. […] The MIC is the concentration at which there is no formation of colonies or mycelia on the surface of the agar (Aspergillus niger).
(§2) The synergism that occurred was presented numerically by calculation of the synergy index (SI). This calculation was made using the common method of F. C. Kull et al., Applied Microbiology, vol. 9 (1961), p. 538. SI is calculated there in accordance with the following formula:
(§3) Synergy index SI=Qa/QA+Qb/QB
(§4) Qa=concentration of MIT in the mixture of N,N-Dimethyldodecan-1-amine oxide+MIT QA=concentration of MIT as sole biocide Qb=concentration of N,N-Dimethyldodecan-1-amine oxide in the biocide mixture of N,N-Dimethyldodecan-1-amine oxide+MIT QB=concentration of N,N-Dimethyldodecan-1-amine oxide as sole biocide
(§5) If the synergy index has a value of more than 1, this means that there is an antagonism. If the synergy index adopts a value of 1, this means that the action of the two biocides is additive. If the synergy index takes on a value of below 1, this means that there is synergism of the two biocides.
Determination of the Synergy Index According to Kull et al. of N,N-Dimethyldodecan-1-amine oxide+MIT in Respect of Candida albicans (ATCC 10231)
The cell density of Candida albicans (ATCC 10231) was 10^6/ml, incubation time 72 hours, temperature 25° C.
Determination of the Synergy Index According to Kull et al. of N,N-Dimethyldodecan-1-amine oxide+MIT+2-n-octyl-4-isothiazolin-3-one (OIT) in Respect of Candida albicans (ATCC 10231)

[2] = system: Aspergillus niger (DSM 12623); assay: Minimum inhibitory concentration and synergy index (Kull) in Sabouraud glucose agar, visual growth reading; format: cell-based; conditions: 72 hours at 25° C.; for Synergistic Index Qa/QA + Qb/QB: below 1 = synergism, 1 = additive, above 1 = antagonism
Protocol: as §1, §2, §3
In the application of this formula to the MIT+N,N-Dimethyldodecan-1-amine oxide biocide system tested here, the variables in the formula have the following definition:
as §4, §5
Determination of the Synergy Index of N,N-Dimethyldodecan-1-amine oxide+MIT in Respect of Aspergillus niger for an Incubation Time of 72 Hours at 25° C.

[3] = Table 2, sum of MIT and amine oxide at MIC

**Q.** How did the “Synergistic Index Qa/QA + Qb/QB” value ([1]; Table 2, 72 hours, 25° C.) turn out when `Cn1sccc1=O` [MIT, 2-methylisothiazolin-3-one] was run?
**A.** The value was 1.00.

**Q.** What about the “MHK Qa (MIT)” value ([1]; Table 2, MIT concentration at MIC, alone or in mixture with amine oxide, 10^6/ml, 72 hours, 25° C.) of the same compound?
**A.** Its value is 125 ppm.

**Q.** What about the Qa/QA ([1]; Table 2, MIT in mixture / MIT as sole biocide) of the same compound?
**A.** The Qa/QA was 1.00.

**Q.** And the Total [1, 3]?
**A.** Its Total is 125 ppm.

**Q.** What about the “Synergistic Index Qa/QA + Qb/QB” value [2] of the same compound?
**A.** The value was 1.00.

**Q.** What about the “MHK Qa (MIT)” value ([2]; MIT concentration at MIC, alone (MIC) or in mixture with amine oxide, 3,7·10^6 spores per ml) of the same compound?
**A.** Its value is 1000 (MIC) ppm.

**Q.** With `CCCCCCCCn1sccc1=O` [OIT, 2-n-octyl-4-isothiazolin-3-one] as the compound, how does the Total ([1]; Table 3) read?
**A.** Its Total is 3 ppm.

**Q.** What about the “Synergistic Index” value ([1]; Table 3, MIT + amine oxide + OIT) of the same compound?
**A.** Its value is 1.00.

**Q.** What about the Qb/QB ([1]; Table 3, OIT component) of the same compound?
**A.** Its Qb/QB is 1.00.

**Q.** What about the “MHK Qb (OIT)” value ([1]; Table 3, OIT concentration at MIC, alone or with MIT + amine oxide) of the same compound?
**A.** Its value is 3 ppm.

**Q.** With `CCCCCCCCCCCC[N+](C)(C)[O-]` [Amine oxide, N,N-Dimethyldodecan-1-amine oxide] as the compound, how does the “Synergistic Index Qa/QA + Qb/QB” value ([1]; Table 2, 72 hours, 25° C.) read?
**A.** The value was 1.00.

**Q.** What about the “MHK Qb (Amine oxide)” value ([1]; Table 2, amine oxide concentration at MIC, alone or in mixture with MIT, 72 hours, 25° C.) of the same compound?
**A.** The value was 50 ppm.

**Q.** And the Qb/QB ([1]; Table 2, amine oxide in mixture / amine oxide as sole biocide)?
**A.** Its Qb/QB is 1.00.

**Q.** And the Total [1, 3]?
**A.** Its Total is 50 ppm.

**Q.** And the “Synergistic Index Qa/QA + Qb/QB” value [2]?
**A.** Its value is 1.00.

**Q.** What about the “MHK Qb (Amine oxide)” value ([2]; amine oxide concentration at MIC, alone (MIC) or in mixture with MIT) of the same compound?
**A.** Its value is 231 (MIC) ppm.
